The text below walks through data of patent US6692880B2, “Electrophotographic toner with stable triboelectric properties” (Heidelberger Druckmaschinen AG, priority 2001, dated 2004).

A short description of data set [1]: Charge per mass of developers after exercise periods, MECCA device. Particulars: clear polyester toner, 2 pph Bontron E-84; for Fresh Developer 10 min exercise (charge values) / Fresh developer 2 min shake (charge values) / Rebuilt developer 2 min shake (charge values) / Rebuilt developer 10 min exercise (charge values): Binder C resin; for Fresh Developer 10 min exercise (charge per mass) / Fresh developer 2 min shake (charge per mass) / Rebuilt developer 2 min shake (charge per mass) / Rebuilt developer 10 min exercise (charge per mass): LLT-101 resin. The format is physicochemical.

For data set [2] the following is noted: obtained or extrapolated from tables in Morrison and Boyd; cited from earlier work.

`C=C(CC(=O)O)C(=O)O` [Itaconic acid]: in data set [1] (0.2 pph added acid), the “Fresh Developer 10 min exercise (charge values)” value is recorded as −63.1 μC/g, the “Fresh developer 2 min shake (charge values)” value is given as −20.6 μC/g, the “Rebuilt developer 2 min shake (charge values)” value is recorded as −41.3 μC/g and the “Rebuilt developer 10 min exercise (charge values)” value is −49.7 μC/g. In data set [1] (1 pph added acid), the “Fresh Developer 10 min exercise (charge values)” value is given as −33.7 μC/g, the “Fresh developer 2 min shake (charge values)” value was −13.6 μC/g, the “Rebuilt developer 2 min shake (charge values)” value is given as −10.2 μC/g and the “Rebuilt developer 10 min exercise (charge values)” value is recorded as −22.6 μC/g. Also, in data set [1] (5 pph added acid), the “Fresh Developer 10 min exercise (charge values)” value is on record as −24.1 μC/g, the “Fresh developer 2 min shake (charge values)” value is recorded as −11.9 μC/g, the “Rebuilt developer 2 min shake (charge values)” value is reported as −6.4 μC/g and the “Rebuilt developer 10 min exercise (charge values)” value is on record as −18.7 μC/g.
Turning to `CCCCCCCCCCCC(=O)O` [Lauric acid], in data set [1] (0.2 pph added acid), the “Fresh Developer 10 min exercise (charge values)” value was −88.1 μC/g, the “Fresh developer 2 min shake (charge values)” value is reported as −44.3 μC/g, the “Rebuilt developer 2 min shake (charge values)” value is −60.1 μC/g and the “Rebuilt developer 10 min exercise (charge values)” value is on record as −77.5 μC/g. Moreover, in data set [1] (0.2 pph added acid), the “Fresh Developer 10 min exercise (charge per mass)” value is reported as −96.0 μC/g, the “Fresh developer 2 min shake (charge per mass)” value is −40.9 μC/g, the “Rebuilt developer 2 min shake (charge per mass)” value was −83.5 μC/g and the “Rebuilt developer 10 min exercise (charge per mass)” value was −110.1 μC/g. In addition, in data set [1] (1 pph added acid), the “Fresh Developer 10 min exercise (charge values)” value is −104.5 μC/g, the “Fresh developer 2 min shake (charge values)” value is −43.7 μC/g, the “Rebuilt developer 2 min shake (charge values)” value is −69.6 μC/g and the “Rebuilt developer 10 min exercise (charge values)” value was −90.8 μC/g. For the same compound, in data set [1] (1 pph added acid), the “Fresh Developer 10 min exercise (charge per mass)” value is −125.5 μC/g, the “Fresh developer 2 min shake (charge per mass)” value is −52.5 μC/g, the “Rebuilt developer 2 min shake (charge per mass)” value was −114.0 μC/g and the “Rebuilt developer 10 min exercise (charge per mass)” value is −123.0 μC/g. Also, in data set [1] (5 pph added acid), the “Fresh Developer 10 min exercise (charge values)” value is “bicharged”, the “Fresh developer 2 min shake (charge values)” value was −14.7 μC/g, the “Rebuilt developer 2 min shake (charge values)” value is listed as −35.0 μC/g and the “Rebuilt developer 10 min exercise (charge values)” value is recorded as “bicharged”. For the same compound, in data set [1] (5 pph added acid), the “Fresh Developer 10 min exercise (charge per mass)” value is reported as “bicharged”, the “Fresh developer 2 min shake (charge per mass)” value is reported as −8.7 μC/g, the “Rebuilt developer 2 min shake (charge per mass)” value is recorded as −12.1 μC/g and the “Rebuilt developer 10 min exercise (charge per mass)” value is listed as −6.2 μC/g.
Regarding `O=C(O)c1ccccc1C(=O)O` [phthalic], in data set [2], the “pKa 1” value was 3.0 and the “pKa 2” value is listed as 5.4.
Regarding `O=C(O)c1ccccc1O` [Salicylic acid], in data set [1] (0.2 pph added acid), the “Fresh Developer 10 min exercise (charge values)” value is reported as −65.5 μC/g, the “Fresh developer 2 min shake (charge values)” value is reported as −22.7 μC/g, the “Rebuilt developer 2 min shake (charge values)” value is reported as −46.5 μC/g and the “Rebuilt developer 10 min exercise (charge values)” value is listed as −62.0 μC/g. In data set [1] (1 pph added acid), the “Fresh Developer 10 min exercise (charge values)” value was −50.5 μC/g, the “Fresh developer 2 min shake (charge values)” value was −21.0 μC/g, the “Rebuilt developer 2 min shake (charge values)” value is −25.5 μC/g and the “Rebuilt developer 10 min exercise (charge values)” value is given as −46.5 μC/g. Moreover, in data set [1] (5 pph added acid), the “Fresh Developer 10 min exercise (charge values)” value is −41.1 μC/g, the “Fresh developer 2 min shake (charge values)” value is −17.4 μC/g, the “Rebuilt developer 2 min shake (charge values)” value is recorded as −17.0 μC/g and the “Rebuilt developer 10 min exercise (charge values)” value is given as −42.8 μC/g.
For the compound `O=C(O)c1ccc(C(=O)O)cc1` [Terephthalic acid], in data set [1] (0.2 pph added acid), the “Fresh Developer 10 min exercise (charge values)” value was −58.9 μC/g, the “Fresh developer 2 min shake (charge values)” value is −25.5 μC/g, the “Rebuilt developer 2 min shake (charge values)” value is listed as −45.3 μC/g and the “Rebuilt developer 10 min exercise (charge values)” value is listed as −49.8 μC/g. Further, in data set [1] (0.2 pph added acid), the “Fresh Developer 10 min exercise (charge per mass)” value is reported as −37.2 μC/g, the “Fresh developer 2 min shake (charge per mass)” value is reported as −30.3 μC/g, the “Rebuilt developer 2 min shake (charge per mass)” value is given as −43.9 μC/g and the “Rebuilt developer 10 min exercise (charge per mass)” value was −35.6 μC/g. Besides, in data set [1] (1 pph added acid), the “Fresh Developer 10 min exercise (charge values)” value is reported as −46.9 μC/g, the “Fresh developer 2 min shake (charge values)” value was −24.4 μC/g, the “Rebuilt developer 2 min shake (charge values)” value was −34.4 μC/g and the “Rebuilt developer 10 min exercise (charge values)” value is −37.9 μC/g. Further, in data set [1] (1 pph added acid), the “Fresh Developer 10 min exercise (charge per mass)” value is given as −19.7 μC/g, the “Fresh developer 2 min shake (charge per mass)” value is given as −34.9 μC/g, the “Rebuilt developer 2 min shake (charge per mass)” value is reported as −15.2 μC/g and the “Rebuilt developer 10 min exercise (charge per mass)” value was −12.9 μC/g. In data set [1] (5 pph added acid), the “Fresh Developer 10 min exercise (charge values)” value is recorded as −13.8 μC/g, the “Fresh developer 2 min shake (charge values)” value is on record as −28.3 μC/g, the “Rebuilt developer 2 min shake (charge values)” value was −16.5 μC/g and the “Rebuilt developer 10 min exercise (charge values)” value was −13.3 μC/g. In data set [1] (5 pph added acid), the “Fresh Developer 10 min exercise (charge per mass)” value was −10.0 μC/g, the “Fresh developer 2 min shake (charge per mass)” value is reported as −32.8 μC/g, the “Rebuilt developer 2 min shake (charge per mass)” value is −18.2 μC/g and the “Rebuilt developer 10 min exercise (charge per mass)” value was −5.8 μC/g.
`Nc1ccc(C(=O)O)cc1` [4-aminobenzoic acid]: in data set [1] (0.2 pph added acid), the “Fresh Developer 10 min exercise (charge values)” value is −78.1 μC/g, the “Fresh developer 2 min shake (charge values)” value is reported as −35.3 μC/g, the “Rebuilt developer 2 min shake (charge values)” value was −63.2 μC/g and the “Rebuilt developer 10 min exercise (charge values)” value is −72.1 μC/g. Further, in data set [1] (1 pph added acid), the “Fresh Developer 10 min exercise (charge values)” value was −84.8 μC/g, the “Fresh developer 2 min shake (charge values)” value is reported as −40.0 μC/g, the “Rebuilt developer 2 min shake (charge values)” value is listed as −56.8 μC/g and the “Rebuilt developer 10 min exercise (charge values)” value is recorded as −67.7 μC/g. For the same compound, in data set [1] (5 pph added acid), the “Fresh Developer 10 min exercise (charge values)” value is listed as −71.6 μC/g, the “Fresh developer 2 min shake (charge values)” value is listed as −36.9 μC/g, the “Rebuilt developer 2 min shake (charge values)” value is −42.6 μC/g and the “Rebuilt developer 10 min exercise (charge values)” value is recorded as −60.5 μC/g.
In the case of `CC(C)(C)c1cc(C(=O)O)cc(C(C)(C)C)c1` [3,5-di-t-butylbenzoic, 3,5-di-t-butylbenzoic acid], in data set [2], the “pKa 1” value was 4.6.
